Here are results for 91 compounds from a melting point compilation (Tetko et al.; mined from patent text by program, amines drawn as free bases though some values may be those of a salt).

As a reminder, the melting point is the temperature, or range, at which the solid turns liquid.

In the case of `CCOC(=O)CNC(=O)N1CCc2cc(S(=O)(=O)N3CCN(c4cccc(Cl)c4)CC3)ccc21`, the melting point was 150 °C.
In the case of `CSc1ccc(-n2cnc(-c3ccc(F)cc3)c2-c2ccncc2)cc1` it was 172 to 173 °C.
Under `CCCCCCC(C)(C)c1cc(O)c(C2=C(CCO)CCC(C)C2)c(O)c1` (stereo unspecified) stands 83 to 86 °C.
In the case of `N#CCCCCn1nc(C(N)=O)c2ccccc21` it was 182 to 185 °C.
`CC(C)(C)OC(=O)N[C@@H](Cc1ccccc1)C(=O)NCCCN1CCN(CCCNc2cccc3c2C(=O)c2ccccc2C3=O)CC1` displayed a melting point of 168 °C.
In turn, `COc1ccc(C)cc1NC(=O)Nc1ccc(N2CCN(C(=O)Nc3cc(OCC(O)CO)ccc3Cl)CC2)cc1` (stereo unspecified) had a melting point of 114 to 118 °C.
In the case of `CC1(C)Cc2c(ccc3c2C(c2cccc(-c4ccc(C(=O)O)cc4)c2)=NCC3(C)C)O1` it was 286 to 291 °C.
In the case of `CC(=O)N(Cc1ccc(C[C@@H](C(=O)O)n2cccc2)cc1)Cc1nc(-c2ccccc2)oc1C` it was 97 to 100 °C; in that of `COC(=O)c1ccc(NC(C)=O)cc1O`, 148 to 151 °C; in that of `COC(=O)c1c(C)c(-c2cc(OC)c(Cl)cc2F)nn1C`, 135 to 137 °C.
Under `COc1ccc(-c2c3ccccc3cc3sc4ccccc4c23)cc1` stands 220 to 221 °C; under `CCCCCCCCCCCCCCCCC1CC(=O)N(NC(=O)CCc2cc(C(C)(C)C)c(O)c(C(C)(C)C)c2)C1=O` (stereo unspecified), 85 °C; under `CCCn1nc(C(C)C)c(C(=O)O)c1Cc1ccc(-c2ccccc2S(=O)(=O)NC(=O)OCC(C)C)c(F)c1`, 77 to 82 °C.
For the compound `Cc1oc(-c2ccccc2)nc1COc1cccc(CON=C(CCCCC(=O)O)c2ccccc2)c1`, the melting point was in the range of 114 to 115 °C.
Under `CCCCC(=O)Nc1c(C(=O)OC)cc(C)cc1[N+](=O)[O-]` stands 59 to 60 °C.
In the case of `CCCCC12CCC3=C(CCc4cc(OC)ccc43)C1=CCC2=O` (stereo unspecified) it was 53 to 55 °C.
For `COC(=O)c1cc(S(C)(=O)=O)c(Br)cc1C`, the melting point came out at 150 °C.
As to `CC(C)(C)n1nnc(NC(=O)C2c3ccccc3Oc3ccccc32)n1`, the melting point was in the range of 230 to 231 °C.
In the case of `Cc1ccccc1C(=O)Nc1ncc([N+](=O)[O-])s1` it was 228 to 230 °C.
Under `CCCCCCNC(=O)C1=C(C(=O)Nc2cc(OC3CCC(C)C3)c(Cl)cc2F)CCCC1` (stereo unspecified) stands 127 to 129 °C.
Under `CC(C)(C)Nc1cc(N2CCNCC2)nc(NC(C)(C)C)n1` stands 142 to 145 °C; under `CCCCCc1csc(-c2ccc3c(c2)C=C(C(=O)Nc2ccc(CN(C)C4CCOCC4)cc2)CCS3(=O)=O)c1`, 204 to 206 °C.
In the case of `CCOC(=O)NC1Cc2ccccc2C1Nc1ccccc1CO` (stereo unspecified), the melting point is 115 to 117 °C.
Under `O=C(Cc1ccc2c(c1)OCO2)N[C@H]1CC[C@H](CCN2CCC(c3cccc4c3CCO4)CC2)CC1` stands 209 °C; under `Cc1ccccc1-n1c(CF)nc2ccc([N+](=O)[O-])cc2c1=O`, 155 to 158 °C; under `CC(C)(C)c1cc(C(=O)CCl)ccc1Cl`, 159 °C.
Under `CCOc1cc(Cn2cc(CCC(=O)O)c(-c3ccccc3)c2)cc(OCc2nc(-c3ccccc3)oc2C)c1` stands 126 to 127 °C.
Under `CN1CCC(Nc2cccc(NC(=O)OC(C)(C)C)c2)CC1` stands 124 to 125 °C.
Compound `Cc1cc(C(=O)N2CCC3(CC2)CSC2=C(O3)c3ccccc3C(=O)C2=O)n(C)n1` displayed a melting point of 244 to 245 °C.
Under `CCCCCCCCC#Cc1ccc2nc(C=O)ccc2c1` stands 46.5 to 47.5 °C; under `Fc1ccc(C#Cc2nccs2)cc1`, 78 to 79 °C.
As for `CC(=O)Nc1ccnn(C)c1=O`, the melting point fell in the range of 152 to 153 °C.
In the case of `O=C1CNCCN1c1ccc([N+](=O)[O-])cc1`, the melting point was in the range of 150 to 153 °C.
In turn, `N#CC1CCN(CCc2ccc(F)cc2)CC1` registered a melting point of 47 to 48 °C.
Under `CCOC(=O)c1cnccc1NC(=O)Cc1c(F)cccc1Cl` stands 114 to 116 °C; under `CCc1nc(N)nc2c1nc(NC)n2C1CC(N=[N+]=[N-])C(CO)O1` (stereo unspecified), 38 to 43 °C.
Under `CC12CCC(=O)N1CCCN2C(=O)C(Cl)Cl` (stereo unspecified) stands 144 to 147 °C; under `OC(=S)CCc1ccc(F)cc1`, 68 to 69 °C; under `O=C(NCCO[N+](=O)[O-])c1ccc(Br)o1`, 61 to 63 °C.
On to `CC(=O)NC1CCNC(c2cccc(Oc3ccccc3)n2)C1` (stereo unspecified), for which the melting point lay in the range of 104 to 106 °C.
Under `CC(C)(C#N)C(O)(CCc1ccc(F)cc1)Cn1cncn1` (stereo unspecified) stands 152 to 154 °C; under `CCCc1cn(CCO)nc1OCc1ccc2ccccc2n1`, 61 to 62 °C.
For the compound `O=C(NC(=O)c1ccc2ncccc2c1)NC1CCN(Cc2ccc3ccccc3c2)CC1`, the melting point was in the range of 211 to 213 °C.
In the case of `CC1CC(=O)NN=C1c1ccc(NC(=O)c2ccccc2O)cc1` (stereo unspecified), the melting point is 218 to 220 °C.
In the case of `CCOC(=O)COc1nc2cc(OC)cc(OC)c2cc1-c1ccc(OC)cc1` it was 95 to 96 °C; in that of `O=C(O)c1sc(C(c2ccc(Cl)cc2)c2c(Cl)cc(-n3ncc(=O)[nH]c3=O)cc2Cl)nc1-c1ccccc1` (stereo unspecified), 206 °C.
Turning to `COCn1cncc1C[C@H](NC(=O)C(Cc1cccc2ccccc12)Cc1cccc2ccccc12)C(=O)OC`, the melting point lay within 182 to 185 °C.
In the case of `CSc1ccc(-c2cncn2-c2ccc(S(C)(=O)=O)cc2)cc1` it was 153 to 155 °C; in that of `COc1cccc(-c2cc(N)c3cc(OC)ccc3n2)c1`, 148 to 149 °C; in that of `CC(C)(C)CNc1cc(Cl)nc(Cl)n1`, 77 to 79 °C.
The compound `CC(C)(N)c1ccc(-c2nc(Nc3ccc(-n4ccnc4)cc3)ncc2C#N)cc1` returned a melting point of 232 to 233 °C.
In the case of `Cc1ccc(-c2[nH]c3ccc(Cl)cc3c2-c2ccc(S(C)(=O)=O)cc2)cc1` it was 238 to 240 °C.
Under `COc1cc(Nc2c(C#N)cnc3cc4cc(OC)c(OCCN5CCC(O)CC5)cc4cc23)c(Cl)cc1C` stands 205 to 235 °C.
Under `CCOCc1nc2c(N)nc(C)c(C)c2n1CCCNC(=O)OCC` stands 148 to 150 °C; under `O=C(c1ccc(-n2ccnc2-c2ccccc2)cc1)C1CC1`, 155 to 157 °C; under `O=C1N(c2cc(Cl)cc(Cl)c2)C(=O)[C@]2(Cc3ccc(Br)cc3)C[C@@H](O)CN12`, 88.3 °C.
Turning to `COc1cc(Nc2c(C#N)cnc3cc(OCCCN4CCC(N5CCCCC5)CC4)c(OC)cc23)c(Cl)cc1Cl`, the melting point fell in the range of 130 to 132 °C.
In the case of `CC(=O)OCCOCn1cnc2c(=O)[nH]c(N)nc21` it was 240 to 241 °C; in that of `Cc1ccccc1NC(=O)C(Cl)Cl`, 192 to 195 °C; in that of `NC(=O)CCN1CCC(c2noc3cc(F)ccc23)CC1`, 144 to 147 °C.
Under `CCc1cc(Br)c2c(O)c(C(=O)OC)c(C(=O)OC)nc2c1` stands 207 to 208 °C; under `CC(C)(C)OC(=O)NCC[C@H]1CC[C@H](CO)CC1`, 75 to 76 °C; under `Cc1cc(-c2ccccc2)nnc1NN`, 162 °C.
Under `O=[N+]([O-])c1cc2c(Nc3ccc(F)c(Cl)c3)ncnc2cc1OCC1CC1` stands 204 °C; under `CCCc1cc(-c2nc(-c3ccc(C)cc3)cs2)ccn1`, 190 to 193 °C; under `CC12CCC3c4ccc(O)cc4C(CC(=O)O)CC3C1CC(O)C2O` (stereo unspecified), 259 to 262 °C.
Compound `C#CCn1c(C#N)ccc1-c1ccc2c(c1)C(C)(C)OC(=O)N2` had a melting point of 222 to 224 °C.
As for `Cc1nc(N2CCc3ccccc3CC2)c(C#N)c(=O)n1NC(C)C`, the melting point fell in the range of 142 to 146 °C.
In the case of `CNc1cccc2c1C(=O)c1ccccc1C2=O` it was 172 °C; in that of `Cc1c(C)c2c(c(C)c1NC(=O)CC(C)(C)C)C(c1ccc(C3OCCO3)cc1)CO2` (stereo unspecified), 193 to 194 °C; in that of `COc1cccc2c(CN3CC=C(/C=C/c4ccccc4)CC3)coc12`, 152 to 153 °C.
Under `CCCCCCCCCc1ccc(C(=O)CC(=O)C(=O)OC)cc1` stands 52 to 53.5 °C; under `Cn1ncc(C(N)=O)c1-c1ccco1`, 116 °C; under `COc1ccc(C(=O)Nc2cccc(-c3cccc4c3/C(=C/c3ccc[nH]3)C(=O)N4)c2)cc1`, 209 to 211 °C.
In the case of `COc1nc2c(c3ccccc13)c1cc(Cl)ccc1n2C` it was 179 to 180 °C.
On to `CC(C)(O)Cn1cnc2c(N)nc3cc(CCS(C)(=O)=O)ccc3c21`, for which the melting point lay within 269 to 271 °C.
Under `CC(C)c1nn(-c2ncc(C#N)cn2)cc1CCCO` stands 153 to 154 °C.
In the case of `COc1cc(C=Cc2ccccc2)c(C#N)c(OC)c1` it was 147 to 148 °C.
In the case of `O=C(CCc1ccc(F)cc1)c1ccc(C(F)(F)F)cc1` it was 66 to 67 °C.
`O=C1CCCC(C(Sc2ccccc2)c2ccccc2)O1` (stereo unspecified) came in with a melting point of 82 to 84 °C.
In the case of `CN1CCN(CC/C=C/c2ccc3ncc(C#N)c(Nc4ccc(Cl)cc4Cl)c3c2)CC1` it was 97 to 98 °C.
In the case of `CCOC(=O)CCC(C)c1ccc(O)cc1` (stereo unspecified) it was 32 to 34 °C; in that of `CCCCOCCOc1ccc(-c2ccc(N3CCCCCC3)c(C=C(C)C(=O)OC)c2)cc1`, 86 to 89 °C; in that of `Cc1c(C(=O)c2cccc(O)c2)sc(N)c1C(=O)OC(C)(C)C`, 169 to 172 °C.
Compound `CC(=O)C(Cc1c(CCN(C)C)[nH]c2ccccc12)(c1ccccc1)c1ccccc1` yielded a melting point of 135 to 137 °C.
In the case of `O=C(CC(=O)C1CC1)c1cnc2ccccc2n1` it was 113 to 115 °C; in that of `O=C(O)c1ccc(C(=O)/C=C/c2ccc(-c3cccs3)cc2F)cc1`, more than 260 °C.
Under `NC1=C2C=NN=C2N(c2ccccc2)CN1Cc1ccccc1` stands 167 to 168 °C.
Under `O=C(O)c1cc2c(c(C(=O)O)c1)NCCC2` stands 298 to 299 °C.
Take `CNC12CC(O)CCC1CCc1ccccc12` (stereo unspecified): the melting point fell in the range of 141 to 143 °C.
Under `Nc1cccc2c1S(=O)(=O)CC2` stands 117 to 119 °C.
